From the supplement of paper PMC10307832

Assays:
Assay in all cases: relative viability (nuclei count vs DMSO), 5 days (fraction); higher = more cells survive
XMD14-99 + Alpelisib = compound: CN1CCN(CC1)C2=CC(=C(C=C2)NC3=NC(=C(S3)C(=O)C4=C(C=CC=C4Cl)Cl)N)OC [XMD14-99] + Cc1nc(NC(=O)N2CCC[C@H]2C(N)=O)sc1-c1ccnc(C(C)(C)C(F)(F)F)c1 [Alpelisib] (partner 2 µM)
In short: (§1)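 Five library-drug doses in √10 steps were combined with a fixed anchor-drug dose, or a single drug was given alone, by pin tool to lung cancer cell lines in 1536-well plates the day after seeding. Nuclei were stained and counted after 5 days. Relative viability is the nuclei count in treated wells over that in vehicle wells, taken as the median of duplicate plates.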

AZD1208 + Bortezomib = compound: N[C@@H]1CCCN(c2c(/C=C3\SC(=O)NC3=O)cccc2-c2ccccc2)C1 [AZD1208] + CC(C)C[C@H](NC(=O)[C@H](Cc1ccccc1)NC(=O)c1cnccn1)B(O)O [Bortezomib] (partner 0.002 µM)
In short: as §1

AZD1208 + Linsitinib = compound: N[C@@H]1CCCN(c2c(/C=C3\SC(=O)NC3=O)cccc2-c2ccccc2)C1 [AZD1208] + C[C@]1(O)C[C@@H](c2nc(-c3ccc4ccc(-c5ccccc5)nc4c3)c3c(N)nccn32)C1 [Linsitinib] (partner 1 µM)
In short: as §1

XMD14-99 + Olaparib = compound: CN1CCN(CC1)C2=CC(=C(C=C2)NC3=NC(=C(S3)C(=O)C4=C(C=CC=C4Cl)Cl)N)OC [XMD14-99] + O=C(c1cc(Cc2n[nH]c(=O)c3ccccc23)ccc1F)N1CCN(C(=O)C2CC2)CC1 [Olaparib] (partner 8 µM)
In short: as §1

Cell Line | relative viability (XMD14-99 + Alpelisib; first compound 0.08 µM) | relative viability (XMD14-99 + Alpelisib; first compound 0.8 µM) | relative viability (XMD14-99 + Alpelisib; first compound 2.53 µM) | relative viability (XMD14-99 + Alpelisib; first compound 8 µM) | relative viability (AZD1208 + Bortezomib; first compound 0.08 µM) | relative viability (AZD1208 + Bortezomib; first compound 0.253 µM) | relative viability (AZD1208 + Bortezomib; first compound 0.8 µM) | relative viability (AZD1208 + Bortezomib; first compound 2.53 µM) | relative viability (AZD1208 + Bortezomib; first compound 8 µM) | relative viability (AZD1208 + Linsitinib; first compound 0.08 µM) | relative viability (AZD1208 + Linsitinib; first compound 0.253 µM) | relative viability (AZD1208 + Linsitinib; first compound 0.8 µM) | relative viability (AZD1208 + Linsitinib; first compound 2.53 µM) | relative viability (AZD1208 + Linsitinib; first compound 8 µM) | relative viability (XMD14-99 + Olaparib; first compound 0.08 µM) | relative viability (XMD14-99 + Olaparib; first compound 0.8 µM) | relative viability (XMD14-99 + Olaparib; first compound 2.53 µM) | relative viability (XMD14-99 + Olaparib; first compound 8 µM)
NCI-H1915 | 1.09 | 0.984 | 0.955 | 0.925 | 0.976 | 1.07 | 0.956 | 0.94 | 1.06 | 1.15 | 1.09 | 1.06 | 1.1 | 1.11 | 0.239 | 0.246 | 0.268 | 0.234
NCI-H647 | 1.05 | 1.07 | 0.937 | 0.933 | 1.05 | 1.12 | 0.902 | 0.774 | 0.774 | 1.22 | 1.1 | 1.06 | 1.03 | 1.06 | 0.512 | 0.561 | 0.746 | 0.38
NCI-H441 | 0.773 | 0.598 | 0.68 | 0.706 | 0.322 | 0.593 | 0.419 | 0.455 | 0.419 | 0.477 | 0.593 | 0.381 | 0.497 | 0.457 | 0.526 | 0.519 | 0.529 | 0.455
NCI-H1299 | 1.05 | 1.04 | 1.05 | 0.884 | 1.06 | 1.07 | 0.994 | 0.986 | 1.02 | 1.03 | 1.13 | 0.997 | 1.01 | 1.08 | 0.929 | 0.969 | 0.935 | 0.742
NCI-H23 | 0.608 | 0.657 | 0.69 | 0.491 | 1.01 | 1.07 | 0.926 | 1.14 | 0.634 | 0.453 | 0.539 | 0.462 | 0.434 | 0.461 | 0.313 | 0.325 | 0.277 | 0.225
IA-LM | 0.72 | 0.638 | 0.515 | 0.456 | 0.648 | 0.708 | 0.876 | 0.724 | 0.746 | 0.625 | 0.827 | 0.524 | 0.529 | 0.69 | 0.943 | 0.691 | 0.68 | 0.352
NCI-H650 | 1.15 | 0.982 | 0.922 | 0.922 | 1.16 | 0.774 | 0.788 | 0.438 | 0.664 | 0.877 | 0.83 | 0.784 | 0.482 | 0.71 | 0.39 | 0.355 | 0.338 | 0.327
NCI-H2087 | 1.03 | 0.801 | 0.827 | 0.549 | 0.827 | 1.01 | 0.846 | 0.941 | 0.909 | 0.87 | 0.941 | 0.934 | 1 | 0.787 | 0.506 | 0.476 | 0.515 | 0.382
NCI-H838 | 1 | 0.928 | 0.904 | 0.604 | 0.873 | 0.94 | 0.714 | 0.8 | 0.692 | 0.992 | 1.09 | 0.815 | 1.02 | 0.817 | 0.736 | 0.754 | 0.637 | 0.45
NCI-H460 | 0.36 | 0.419 | 0.431 | 0.197 | 1.04 | 1.63 | 1.06 | 1.13 | 0.925 | 0.724 | 0.843 | 0.817 | 0.711 | 0.539 | 0.394 | 0.432 | 0.421 | 0.182
LOU-NH91 | 0.72 | 0.804 | 0.735 | 0.622 | 0.539 | 0.516 | 0.564 | 0.504 | 0.593 | 0.953 | 0.934 | 0.855 | 0.949 | 0.822 | 0.904 | 0.919 | 0.891 | 0.692
NCI-H322M | 0.889 | 0.709 | 0.64 | 0.767 | 1.21 | 1.31 | 1.21 | 1.15 | 1.25 | 0.954 | 0.98 | 0.828 | 0.829 | 0.84 | 0.807 | 0.8 | 0.75 | 0.617
NCI-H520 | 0.83 | 0.843 | 0.83 | 0.707 | 0.597 | 0.718 | 0.311 | 0.428 | 0.399 | 0.904 | 1.07 | 0.808 | 0.819 | 0.83 | 0.344 | 0.381 | 0.32 | 0.196
NCI-H661 | 0.798 | 0.564 | 0.594 | 0.356 | 0.665 | 0.817 | 0.724 | 0.759 | 0.852 | 0.505 | 0.568 | 0.519 | 0.416 | 0.483 | 0.684 | 0.663 | 0.619 | 0.485
NCI-H727 | 0.553 | 0.513 | 0.447 | 0.407 | 0.641 | 0.895 | 0.804 | 0.882 | 0.697 | 0.29 | 0.219 | 0.264 | 0.259 | 0.225 | 0.737 | 0.68 | 0.712 | 0.523
NCI-H1734 | 0.659 | 0.704 | 0.738 | 0.584 | 0.831 | 1.05 | 0.811 | 0.991 | 0.611 | 0.728 | 0.807 | 0.795 | 0.791 | 0.603 | 0.605 | 0.581 | 0.595 | 0.385
LXF-289 | 1 | 0.971 | 1.02 | 0.835 | 1.04 | 1.1 | 0.999 | 1.07 | 1.15 | 0.982 | 1.01 | 0.966 | 1.01 | 1.01 | 1.06 | 1.01 | 1.11 | 0.931
H3255 | 0.605 | 0.636 | 0.629 | 0.506 | 0.874 | 0.758 | 0.667 | 0.968 | 0.718 | 1.02 | 1.05 | 0.866 | 0.973 | 0.891 | 0.577 | 0.507 | 0.491 | 0.343
